Data reported in patent US20220306617A1, “SUBSTITUTED 1,3-PHENYL HETEROARYL DERIVATIVES AND THEIR USE IN THE TREATMENT OF DISEASE” (NOVARTIS AG, priority 2019, published 2022).
Where a name gives a salt, the structure may show the parent alone.

Molecular target: T1, abc isoform of human TMEM16A channel expressed in CHO cells (Homo sapiens, UniProt Q5XXA6, DEL476-501)
T1 construct: expressed in transfected cells; host or cells: CHO cells, doxycycline-inducible expression under Blasticidin/Zeocin selection
T1 sequence (Q5XXA6 with tags, fused parts or gaps isoform Q5XXA6-5 DEL539-564): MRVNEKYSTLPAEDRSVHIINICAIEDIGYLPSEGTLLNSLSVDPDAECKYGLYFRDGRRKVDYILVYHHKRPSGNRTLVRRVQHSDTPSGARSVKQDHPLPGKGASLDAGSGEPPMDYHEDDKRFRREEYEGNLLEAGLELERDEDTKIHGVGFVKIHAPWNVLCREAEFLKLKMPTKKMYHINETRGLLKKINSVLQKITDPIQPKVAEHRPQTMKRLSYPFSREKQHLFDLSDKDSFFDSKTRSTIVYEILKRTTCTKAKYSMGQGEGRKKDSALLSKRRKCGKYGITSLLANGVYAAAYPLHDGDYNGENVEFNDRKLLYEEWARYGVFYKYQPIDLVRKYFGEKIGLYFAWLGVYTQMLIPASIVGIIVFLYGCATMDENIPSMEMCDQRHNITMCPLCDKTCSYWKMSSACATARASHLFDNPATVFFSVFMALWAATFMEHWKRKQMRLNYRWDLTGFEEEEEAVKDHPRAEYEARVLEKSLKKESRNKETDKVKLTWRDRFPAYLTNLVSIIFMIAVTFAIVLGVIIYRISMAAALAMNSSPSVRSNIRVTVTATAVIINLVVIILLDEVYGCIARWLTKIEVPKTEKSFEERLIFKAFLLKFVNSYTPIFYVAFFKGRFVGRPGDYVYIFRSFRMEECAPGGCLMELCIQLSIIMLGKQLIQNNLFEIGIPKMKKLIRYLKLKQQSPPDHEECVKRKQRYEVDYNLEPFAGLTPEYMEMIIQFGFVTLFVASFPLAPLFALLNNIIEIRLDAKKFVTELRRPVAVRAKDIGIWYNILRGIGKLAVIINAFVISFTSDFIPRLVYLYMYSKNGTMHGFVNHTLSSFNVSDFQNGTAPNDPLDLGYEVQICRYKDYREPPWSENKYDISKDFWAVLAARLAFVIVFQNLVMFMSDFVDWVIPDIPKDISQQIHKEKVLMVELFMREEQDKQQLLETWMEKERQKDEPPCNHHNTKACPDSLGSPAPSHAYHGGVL
Assay: Automated patch clamping (QPatch) assay to measure TMEM16A activity in whole-cell
Assay type: cell-based
Conditions: for EC50: CHO cells expressing human TMEM16A (abc), whole-cell automated patch clamp, Hill fit, read-out: TMEM16A QPATCH assay EC50 V3 EC50; for Emax: CHO, read-out: TMEM16A QPATCH assay EC50 V3 Assay Window (% TMEM16A max activation); for Emax / TMEM16A QPATCH assay EC50 V3 Assay Window (% TMEM16A max activation): maximum current at highest dose relative to reference potentiator at maximal concentration (upper limit) and vehicle (lower limit)
Outline: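 CHO cells with doxycycline-induced (1 μg/mL, 18-24 h) human TMEM16A abc isoform; QPatch whole-cell recording, hold −70 mV, step +70 mV 1500 ms, then −90 to +70 mV ramp. Compounds in 0.3% DMSO; EC50 by Hill fit; % max activation relative to vehicle baseline and reference potentiator maximum.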

| SMILES | EC50 | Emax | TMEM16A QPATCH assay EC50 V3 Assay Window (% TMEM16A max activation) |
| --- | --- | --- | --- |
| CCC(CC)NC(=O)c1cnc(-c2cccc(-c3cc(C(=O)N[C@H](CCSC)C(=O)OC)n[nH]3)c2)o1 [Example 3.46, (R)-Methyl 4-(Methylthio)-2-(5-(3-(5-(Pentan-3-Ylcarbamoyl)Oxazol-2-yl)Phenyl)-1H-Pyrazole-3-Carboxamido)Butanoate] | 800 nM | 80% | – |
| CCOC(=O)[C@H](NC(=O)c1cnc(-c2cccc(-c3cc(C(=O)NC(CC)CC)n[nH]3)c2)o1)c1ccccc1 [Example 1.28, (R)-Ethyl 2-(2-(3-(3-(Pentan-3-Ylcarbamoyl)-1 H-Pyrazol-5-yl)Phenyl)Oxazole-5-Carboxamido)-2-Phenylacetate] | 610 nM | 84% | – |
| CCC(CC)NC(=O)c1cnc(-c2cccc(-c3cc(C(=O)NC(COC)C4CC4)n[nH]3)c2)o1 (stereo not drawn) [Example 3.1, 2-(3-(3-((1-Cyclopropyl-2-Methoxyethyl)Carbamoyl)-1H-Pyrazol-5-Yl)Phenyl)-N-(Pentan-3-Yl)Oxazole-5-Carboxamide] | 300 nM | 140% | – |
| CCC(CC)NC(=O)c1cc(-c2cccc(-c3ncc(C(=O)NC(CC)CC)o3)c2)n[nH]1 [Example 1.20, N-(Pentan-3-Yl)-2-(3-(5-(Pentan-3-Ylcarbamoyl)-1H-Pyrazol-3-yl)Phenyl)Oxazole-5-Carboxamide] | 290 nM | 112% | – |
| CCOC(=O)[C@H](C)NC(=O)c1cc(-c2cccc(-c3ncc(C(=O)NC(CC)CC)o3)c2)[nH]n1 [Example 3.63, (S)-Ethyl 2-(5-(3-(5-(Pentan-3-Ylcarbamoyl)Oxazol-2-Yl)Phenyl)-1H-Pyrazole-3-Carboxamido)Propanoate Trifluoroacetate] | 860 nM | 72% | – |
| CCC(CC)NC(=O)c1cnc(-c2cccc(-c3nnc(C(=O)NCC4CCCCC4)[nH]3)c2)o1 [Example 13.5, 2-(3-(5-((Cyclohexylmethyl)Carbamoyl)-4H-1,2,4-Triazol-3-Yl)Phenyl)-N-(Pentan-3-Yl)Oxazole-5-Carboxamide] | 30 nM | 88% | – |
| CCC(CC)NC(=O)c1cc(-c2cccc(-c3ncc(C(=O)Nc4cccc(C#N)c4)o3)c2)[nH]n1 [Example 1.27, N-(3-Cyanophenyl)-2-(3-(3-(Pentan-3-Ylcarbamoyl)-1 H-Pyrazol-5-yl)Phenyl)Oxazole-5-Carboxamide] | 920 nM | 86% | – |
| CCC(CC)NC(=O)c1cnc(-c2cccc(-c3nc(C(=O)NC(CC)CC)n(CCOCCOCCOC)n3)c2)o1 [Example 15.9, 2-(3-(1-(2-(2-(2-Methoxyethoxy)Ethoxy)Ethyl)-5-(Pentan-3-Ylcarbamoyl)-1H-1,2,4-Triazol-3-Yl)Phenyl)-N-(Pentan-3-Yl)Oxazole-5-Carboxamide] | 1000 nM | 95% | – |
| CCC(CC)NC(=O)c1cnc(-c2cccc(-c3cc(C(=O)N[C@@H](C)C4CC4)n(CC(C)O)n3)c2)o1 (stereo partly drawn) [Example 9.5, 2-(3-(5-(((S)-1-Cyclopropylethyl)Carbamoyl)-1-(2-Hydroxypropyl)-1H-Pyrazol-3-Yl)Phenyl)-N-(Pentan-3-Yl)Oxazole-5-Carboxamide] | 240 nM | 104% | – |
| CCC(CC)NC(=O)c1cnc(-c2cccc(-c3cc(C(=O)NCCSC(C)(C)C)n[nH]3)c2)o1 [Example 3.23, 2-(3-(3-((2-(Tert-Butylthio)Ethyl)Carbamoyl)-1H-Pyrazol-5-Yl)Phenyl)-N-(Pentan-3-Yl)Oxazole-5-Carboxamide] | 130 nM | 79% | – |
| CCC(CC)NC(=O)c1cnc(-c2cccc(-c3cc(C(=O)N[C@@H](C(=O)OC)c4ccccc4)n[nH]3)c2)o1 [Example 3.65, (R)-Methyl 2-(5-(3-(5-(Pentan-3-Ylcarbamoyl)Oxazol-2-Yl)Phenyl)-1H-Pyrazole-3-Carboxamido)-2-Phenylacetate Trifluoroacetate] | 780 nM | 28% | – |
| CCC(CC)NC(=O)c1cnc(-c2cccc(-c3nnc(C(=O)NC(CC)CC)n3CCOC)c2)o1 [Example 15.5, 2-(3-(4-(2-Methoxyethyl)-5-(Pentan-3-Ylcarbamoyl)-4H-1,2,4-Triazol-3-Yl)Phenyl)-N-(Pentan-3-Yl)Oxazole-5-Carboxamide] | 440 nM | 83% | – |
| C[C@H](NC(=O)c1cc(-c2cccc(-c3ncc(C(=O)NC(C4CC4)C4CC4)o3)c2)nn1CC(O)C(F)(F)F)C1CC1 (single isomer, unassigned) [Example 9.2 (i)] | 130 nM | – | 115% |
| CCC(CC)NC(=O)c1cnc(-c2cccc(-c3cc(C(=O)N[C@@H](C)C(C)(C)C)n[nH]3)c2)o1 [Example 3.35, (S)-2-(3-(3-((3,3-Dimethylbutan-2-Yl)Carbamoyl)-1H-Pyrazol-5-Yl)Phenyl)-N-(Pentan-3-Yl)Oxazole-5-Carboxamide Trifluoroacetate] | 120 nM | 69% | – |
| CCC(CC)NC(=O)c1cnc(-c2cccc(-c3cc(C(=O)NC(C4CC4)C4CCCO4)n[nH]3)c2)o1 (single isomer, unassigned) [Example 3.4 (iv), 2-(3-(3-((Cyclopropyl(Tetrahydrofuran-2-Yl)Methyl)Carbamoyl)-1H-Pyrazol-5-Yl)Phenyl)-N-(Pentan-3-Yl)Oxazole-5-Carboxamide] | 380 nM | – | 73% |
| CCC(CC)NC(=O)c1cc(-c2cccc(-c3ncc(C(=O)N[C@H](C(=O)OC(C)(C)C)C(C)C)o3)c2)[nH]n1 [Example 1.9, (S)-Tert-Butyl 3-Methyl-2-(2-(3-(3-(Pentan-3-Ylcarbamoyl)-1H-Pyrazol-5-yl)Phenyl)Oxazole-5-Carboxamido)Butanoate] | 30 nM | 146% | – |
| CCC(CC)NC(=O)c1cnc(-c2cccc(-c3cc(C(=O)N[C@H](C)C(C)C)n[nH]3)c2)o1 [Example 3.37, (R)-2-(3-(3-((3-Methylbutan-2-Yl)Carbamoyl)-1H-Pyrazol-5-Yl)Phenyl)-N-(Pentan-3-Yl)Oxazole-5-Carboxamide] | 200 nM | 109% | – |
| CCC(CC)NC(=O)c1cnc(-c2cccc(-c3cc(C(=O)NC(CC)CC)n(CCO)n3)c2)o1 [Example 9.7, 2-(3-(1-(2-Hydroxyethyl)-5-(Pentan-3-Ylcarbamoyl)-1H-Pyrazol-3-Yl)Phenyl)-N-(Pentan-3-Yl)Oxazole-5-Carboxamide] | 90 nM | 85% | – |
| COC(=O)[C@H](CC(C)C)NC(=O)c1cnc(-c2cccc(-c3nnc(C(=O)N[C@@H](C)C4CC4)[nH]3)c2)o1 [Example 12.13] | 290 nM | 99% | – |
| C[C@H](NC(=O)c1cc(-c2cccc(-c3ncc(C(=O)NC(C4CC4)C4CC4)o3)c2)nn1CC(O)C(F)(F)F)C1CC1 (single isomer, unassigned) [Example 9.2 (ii)] | 40 nM | – | 83% |
| CCOC(=O)[C@@H](NC(=O)c1cc(-c2cccc(-c3ncc(C(=O)NC(C4CC4)C4CC4)o3)c2)nn1CC(C)(C)O)C(C)C [Example 10.0, (S)-Ethyl 2-(3-(3-(5-((Dicyclopropylmethyl)Carbamoyl)Oxazol-2-Yl)Phenyl)-1-(2-Hydroxy-2-Methylpropyl)-1 H-Pyrazole-5-Carboxamido)-3-Methylbutanoate] | 40 nM | 116% | – |
| CCC(CC)NC(=O)c1cc(-c2cccc(-c3ncc(C(=O)NCc4ccc5c(c4)OCO5)o3)c2)[nH]n1 [Example 1.31, N-(Benzo[d][1,3]Dioxol-5-Ylmethyl)-2-(3-(3-(Pentan-3-Ylcarbamoyl)-1 H-Pyrazol-5-yl)Phenyl)Oxazole-5-Carboxamide] | 770 nM | 65% | – |
| CCC(CC)NC(=O)c1cc(-c2cccc(-c3ncc(C(=O)Nc4cc(C)cc(C)c4)o3)c2)[nH]n1 [Example 1.3] | 560 nM | 82% | – |
| CCC(CC)NC(=O)c1cc(-c2cccc(-c3ncc(C(=O)Nc4cccc(Cl)c4)o3)c2)[nH]n1 [Example 1.33, N-(3-Chlorophenyl)-2-(3-(3-(Pentan-3-Ylcarbamoyl)-1H-Pyrazol-5-yl)Phenyl)Oxazole-5-Carboxamide] | 720 nM | 66% | – |
